{"source": "patent US11471463B2", "about": "“Enhancers of cellular cannibalism for use to sensitize tumors to radiation therapy” (Institut Gustave-Roussy, priority 2017, dated 2022)", "key": {"[1]": {"system": "HCT116 cells", "assay": "Cell death profiling by quantitative flow imaging of co-cultured irradiated and non-irradiated cells", "format": "cell-based, human", "details": "4 grays, 24 hour co-culture; for Engulfment of neighboring cells by gamma-irradiated CMFDA+ cells (cell-in-cell internalization): Y27632 30 μM; for Engulfment of neighboring cells by gamma-irradiated CMFDA+ cells (cell-in-cell internalization) / Exposure of PS on the outer plasma membrane of irradiated CMFDA+ cells: Z-VAD-fmk 100 μM; for Exposure of PS on the outer plasma membrane of irradiated CMFDA+ cells: Roscovitine 10 μM", "method": "Untreated HCT116 cells were labeled with CMFDA (green fluorescence, CMFDA^+) or CMTMR, (red fluorescence, CMTMR^+) and treated HCT116 cells with CMFDA (green fluorescence, CMFDA^+). The following cell mixtures were performed: untreated CMTMR^+ HCT116 cells were mixed with untreated CMFDA^+ HCT116 cells, or untreated CMTMR^+ HCT116 cells were mixed with treated CMFDA^+ HCT116 cells. Then, cells were co-cultured during 24 hours in the presence or absence of the pharmacological inhibitor of ROCK, Y27632 (30 μM), the pan-caspase inhibitor, Z-VAD-fmk (ZVAD, 100 μM), the inhibitor of caspase-1, Ac-YVAD-cmk (YVAD, 100 μM), the necroptosis inhibitor, Necrostatin-1 (NEC 1, 30 μM), the inhibitor of the vacuolar type H(+)-ATPase (V-ATPase) inhibiting autophagy, Bafilomycin A1 (BafA1, 50 nM), the inhibitor of Cdks with an anti-mitotic activity, Roscovitine (Rosco, 10 μM). After 24 hours of co-culture, both detached and adherent cells were collected and stained with Hoechst 33345 ([…]) during 1 hour at 37° C. in warmed complete medium. To detect phosphatidylserine (PS) exposure and plasma membrane permeability, labeled HCT116 cells were successively incubated with Biotin-AnnexinV (BD Pharmingen) as recommended by manufacturer, […] BV786-Streptavidin (BD Biosciences) and […] DRAQ7 (BioStatus) during 15 minutes at 25° C. After washing with PBS solution, samples were immediately analyzed using an imaging flow cytometer FlowSight® (Amnis®, part of EMD Millipore). Data were acquired at a 20× magnification, using INSPIRE software. The 405 nm, 488 nm, and 561 nm lasers were used for excitation. Brightfield, Annexin V-BV786, DRAQ7, CMFDA, CMTMR and Hoechst 33345 stainings were detected using respectively channels for 420-480 nm, 745-800 nm, 642-745 nm, 480-560 nm, 595-642 nm and 430-505 nm. At least 1000 events of cells per sample were analyzed. Additional single-labeled controls were prepared to normalize fluorescent signal across different channels. Acquired data were analyzed using the IDEAS analysis software (v6.1; Merck-Millipore). Gating strategy was the following. Cells were gated for focused cells using the Gradient RMS feature. Cells were gated for single cells using the aspect ratio and area features. For the cannibalism detection, cells were gated in the double positive CMFDA^+ and CMTMR^+ staining.\nTo detect PS exposure, plasma membrane permeability and cell cycle progression, cells were after co-culture sequentially labeled with specific fluorescent probes (such as FITC-conjugated AnnexinV, propidium iodide, and Hoechst 33342) and analyzed by flow cytometry. Both detached and adherent cells were collected and stained with Hoechst 33345 (10 ug/ml) during 1 hour at 37° C. in warmed complete medium. After washing with PBS, HCT116 cells were suspended in 1X binding buffer supplemented with fluorescein isothiocyanate (FITC)-conjugated Annexin V (BD Biosciences) and propidium iodide (PI, 1 μg/mL) (Sigma), as per manufacturer's instructions. Samples were then analyzed using LSRII flow cytometer (Becton Dickinson) and the FlowJo software v10. For confocal fluorescence microscopy, HCT116 cells were fixed after co-culture in 3,7% paraformaldehyde-PBS for 15 minutes and counterstained with 1 μg/mL Hoechst 33342 (Invitrogen) for 15 minutes. Then, cells were analyzed by confocal SPE microscope equipped with Apochromat 63×1.3 NA and 63×1.15 NA oil immersion objectives. The Leica Application Suite (LAS) software was used (Leica Microsystems).\nConsidering the diversity of lethal stimuli that can potentially initiate both non-cell autonomous and cell autonomous cell death modalities and the complexity of signaling pathways (involving (or not) caspases, cathepsins or granzymes) that control both processes, it was decided to simultaneously detect non-cell autonomous and cell autonomous death modalities elicited by IR. […]"}, "[2]": {"system": "HCT116 cells", "assay": "Screening for enhancers of IR-mediated cellular cannibalism (imaging flow cytometry, confocal microscopy validation)", "format": "cell-based, human", "details": "8 Gray, 10 μM compound, 24 hours of culture", "method": "FIG. 4 Identification of cannibalism modulators triggered by ionizing radiation. Compounds from the Prestwick (A) and CEA (F) libraries were tested for their capacities to induce cellular cannibalism after ionizing radiation. Cannibal cells were detected after homotypic cultures of 8 gray γ-irradiation HCT116 cells in the presence or absence of […] of the Prestwick (A) and CEA […] library compounds. Each dot represents one compound. Representative images are shown in (B, G). (C, H) HCT116 cells were treated with the indicated drugs. After 24 h of treatment, cell death was monitored by staining with 3,3 dihexyloxacarbocyanine iodide (DiOC6(3)) and PI, and the percentage of dying (DiOC6(3)^low PI^−, open bars) and dead (DiOC6(3)^low PI^+, closed bars) cells was determined by cytofluorometry. Validation of the cannibalism inducers by fluorescent microscopy. Representative images (D, I) and quantification (E, J) are shown. Results are means±s.e.m. of triplicate determinations.\nThen, the screening of a library of chemical compounds was developed in order to identify compounds able to induce IR-mediated cellular cannibalism. Thus, HCT116 cells that have been treated with a radiation dose of 8 Gray were stained either with orange CMTMR cell tracker or green CMFDA cell tracker and cultivated in presence of 10 μM of chemical compounds. After 24 hours of culture, cells have been stained with nuclear dye (5 μg/ml of Hoechst 33342 during 1 h at 37° C.) and analyzed using the FlowSight® Imaging Flow Cytometer for cellular cannibalism. Each of these compounds were classified according to their Z-score^47 and identified respectively 13 and 11 candidate compounds (FIGS. 4A, 4B, 4F and 4G). Then, the identified compounds were validated by combining flow cytometry approaches (in order to eliminate cytotoxic compounds by simultaneously monitoring the depolarization of the internal mitochondrial membrane and the plasma membrane permeability of the treated cells) with confocal microscopy approaches (to confirm the modulation of IR-induced cellular cannibalism by candidate compounds) (FIGS. 4C-E and 4H-J). […] Finally, 16 chemical compounds that are able to enhance the capacity of IR to trigger cellular cannibalism were identified (FIGS. 4E and 4J, Tables 1&2)."}, "[3]": {"system": "MCA205 cells", "assay": "Cell death monitoring by DiOC6(3)/PI staining", "format": "cell-based, mouse", "method": "(§1) FIG. 5. Identification of cannibalism modulators as immunogenic cell death inducers. MCA205 (A) or CT26 (E, I, M, Q) cells were treated with the indicated drugs. After 24 h of coculture with the indicated treatment, cell death was monitored by staining DiOC6(3) and PI, and the percentage of dying (DiOC6(3)^low PI^−, open bars) and dead (DiOC6(3)^low PI^+, closed bars) cells was determined by cytofluorometry. (B-D) MCA205 cells or (F-H, J-L, N-P, R-T) CT26 cells cocultured after x irradiation with the indicated compounds were inoculated subcutaneously into the right flank of […] or BALB/c mice, respectively. Seven days later, the mice were rechallenged with live cells injected into the opposite flank, and tumor growth was monitored (five mice per group).\n(§2) Considering that immunogenic cell death (ICD) inducers were identified (such as Digoxin, Digitoxin, Lanatoside C or Doxorubicin hydrochloride)^3, 4, 48-51) as IRCCE, the ability of these compounds to induce an antitumor immunity after radiotherapy was evaluated. […] Tumors were evaluated weekly using a common caliper. […] One week later, 5×10^5 untreated control cells were inoculated into the contralateral flank of mice and tumors were evaluated weekly using a common caliper. […] The percentage of dying cells in each condition was evaluated by determining with DiOC(6)3/IP staining (FIGS. 5E, 5I, 5M and 5Q). […]"}, "[4]": {"system": "MCA205 cells", "assay": "Anti-tumor vaccination assay, treated MCA205 cells inoculated into C57BL/6 mice and rechallenge", "format": "in vivo, mouse", "method": "as §1, §2"}, "[5]": {"system": "CT26 cells", "assay": "Anti-tumor vaccination assay, treated CT26 cells inoculated into BALB/c mice and rechallenge", "format": "in vivo, mouse", "details": "8 Gy in presence of 10 μM compound for 24 hours", "method": "as §1\nFIG. 6. Tumor vaccination experiments. CT26 cells were treated for 24 hours with 10 μM VP331 (A, F, K), 10 μM Minaprine (B, G, L), 10 μM Lopa87 (C, H, M), 10 μM SG6163F (D, I, N), 10 μM Azaguanine-8 (8-aza) (E, J, O) alone or combined with 8 Gy ionizing radiation and inoculated (s.c.) into immunocompetent BALB/c mice, which were rechallenged at the opposite flank 7 days later with the same cancer cells. The percentage of tumor-free mice was evaluated three times a week for the following 38 days. Percentage of total tumor free mice (A-E), tumor free-mice at the first injection site (F to J, P) or at the second injection site (K to O, Q) are shown. (*P<0.05, **P<0.01, ***P<0.001, two-way ANOVA).\nConsidering that immunogenic cell death (ICD) inducers were identified (such as Digoxin, Digitoxin, Lanatoside C or Doxorubicin hydrochloride)^3, 4, 48-51) as IRCCE, the ability of these compounds to induce an antitumor immunity after radiotherapy was evaluated. First, a preclinical approaches was developed to study the immunological effects of IRCCE on two mouse models of carcinoma (colon CT26 carcinoma and fibrosarcoma MCA205). Initially, the ability of the combination of IRCCE+IR to trigger a specific anti-tumor immune response was appreciated using immunocompetent mice through anti-tumor vaccination assays. According to previously published studies^52, the injection of cancer cells succumbing to an immunogenic cell death (ICD) into immunocompetent mice must elicit a protective immune response that is specific for tumor antigens. Thus, 3×10^5 MCA205 cells were first treated with 10 μM of SG6163F for 24 hours. Then, treated cells were inoculated subcutaneously in 200 μl PBS into the lower flank of 8-week-old female C57BL/6 mice. One week later, 3×10^4 untreated control cells were inoculated into the contralateral flank of mice. Tumors were evaluated weekly using a common caliper. Animals bearing tumors that exceeded 20-25% body mass were euthanatized. […] Then, 3×10^6 CT26 cells were irradiated with 8 Gy in presence of 10 μM of SG6163F (FIGS. 5E and 5F), VP331 (FIGS. 5I and 5J), Minaprine dihydrochloride (FIGS. 5M and 5N) or LOPA87 (FIGS. 5Q and 5R) for 24 hours. Then, cells were inoculated as previously described subcutaneously in 200 μl PBS into the lower flank of 8-week-old female BALB/c mice. One week later, 5×10^5 untreated control cells were inoculated into the contralateral flank of mice and tumors were evaluated weekly using a common caliper. As previously mentioned, animals bearing tumors that exceeded 20-25% body mass were euthanatized. The percentage of dying cells in each condition was evaluated by determining with DiOC(6)3/IP staining (FIGS. 5E, 5I, 5M and 5Q). Finally, the ability of these compounds to repress the growth of cancer cells that have been injected 7 days after injection of irradiated and treated cancer cells was appreciated.\nA second anti-tumor vaccination assay was done on CT26 mouse models of carcinoma as previously described. […]"}}, "note": "Peptide text beside a SMILES is read from it. * marks the point of attachment. Cbz = O=C(OCc1ccccc1)*; CH2F = FC*"}
{"smiles": "C[C@@H](N)[C@H]1CC[C@H](C(=O)Nc2ccncc2)CC1", "note": "[Y27632]", "values": [{"measurement": "Engulfment of neighboring cells by gamma-irradiated CMFDA+ cells (cell-in-cell internalization)", "setting": "[1]", "result": "repressed"}]}
{"smiles": "CO/C1=C\\C(C)=C\\[C@@H](C)[C@@H](O)[C@@H](C)C/C(C)=C/C=C/[C@H](OC)[C@@H]([C@@H](C)[C@@H](O)[C@H](C)[C@@]2(O)C[C@@H](O)[C@H](C)[C@@H](C(C)C)O2)OC1=O", "note": "[bafilomycin A1, Bafilomycin A1]", "values": [{"measurement": "Frequency of dying cells (AnnexinV+DRAQ7- and DRAQ7+ cells)", "setting": "[1]; total, non-irradiated CMTMR+ and irradiated CMFDA+ cells, BafA1 50 nM", "result": "increased the frequency of dying cells"}]}
{"smiles": "O=C1NC(c2ccccc2)=N/C1=C\\c1cc2ccccc2c2ccccc12", "note": "[SG6163F]", "values": [{"measurement": "Enhancement of IR-mediated cellular cannibalism (IRCCE)", "setting": "[2]", "result": "efficient cellular cannibalism enhancer"}, {"measurement": "Increase of cell death in vitro", "setting": "[3]; 10 μM compound alone, 24 hours", "result": "not able to induce a significant increase of cell death"}, {"measurement": "Increase of death of treated and irradiated cells", "setting": "[3]; 8 Gy of IR and 10 μM compound", "result": "absence of a significant increase of death"}, {"measurement": "Protective response after inoculation of untreated cells", "setting": "[4]; MCA205 cells treated with 10 μM compound alone, rechallenge one week later", "result": "did not exhibit a protective response"}, {"measurement": "Mice with protective response", "setting": "[4]; MCA205 cells treated with 8 Gy of IR and 10 μM compound", "result": "3 of 5"}, {"measurement": "Frequency of mice showing a protective response", "setting": "[5]; first assay: CT26 cells, rechallenge one week later", "result": "significant increase in the frequency of mice showing a protective response"}, {"measurement": "Frequency of mice showing a protective response", "setting": "[5]; second assay: CT26 cells, rechallenge 7 days later", "result": "Significant increases in the frequency of mice showing a protective response"}]}
{"smiles": "CC[C@H](CO)Nc1nc(NCc2ccccc2)c2ncn(C(C)C)c2n1", "note": "[roscovitine, Roscovitine]", "values": [{"measurement": "Exposure of PS on the outer plasma membrane of irradiated CMFDA+ cells", "setting": "[1]", "result": "inhibited the exposure of PS"}]}
{"smiles": "COC(=O)CC(NC(=O)C(C)NC(=O)C(NC(=O)OCc1ccccc1)C(C)C)C(=O)CF", "note": "(stereo not drawn) [Z-VAD-fmk, Benzyloxycarbonyl-Val-Ala-Asp(OMe)-fluoromethylketone] (Cbz-Val-Ala-Asp(OMe)-CH2F; configuration not given here)", "values": [{"measurement": "Engulfment of neighboring cells by gamma-irradiated CMFDA+ cells (cell-in-cell internalization)", "setting": "[1]", "result": "not affected"}, {"measurement": "Exposure of PS on the outer plasma membrane of irradiated CMFDA+ cells", "setting": "[1]", "result": "inhibited the exposure of PS"}, {"measurement": "Cellular degradation of engulfed CMTMR+ cells", "setting": "[1]; inhibitors 100 μM", "result": "significantly reduced"}]}
